Laboratory results taken from US20170216355A1, “Methods and Compositions for Enhancing T Cell Function and Survival” (Augusta University Research Institute, Inc., priority 2016, published 2017).
“Also recorded” adds a separate entry of the source.

How the values were obtained:
p110γ = p110γ (Homo sapiens, UniProt P48736); conditions: cited from earlier work
p110δ = p110δ (Homo sapiens, UniProt O00329); conditions: cited from earlier work
p110α = p110α (Homo sapiens, UniProt P42336); conditions: cited from earlier work
Chain of p110α (P42336 whole entry, species assumed): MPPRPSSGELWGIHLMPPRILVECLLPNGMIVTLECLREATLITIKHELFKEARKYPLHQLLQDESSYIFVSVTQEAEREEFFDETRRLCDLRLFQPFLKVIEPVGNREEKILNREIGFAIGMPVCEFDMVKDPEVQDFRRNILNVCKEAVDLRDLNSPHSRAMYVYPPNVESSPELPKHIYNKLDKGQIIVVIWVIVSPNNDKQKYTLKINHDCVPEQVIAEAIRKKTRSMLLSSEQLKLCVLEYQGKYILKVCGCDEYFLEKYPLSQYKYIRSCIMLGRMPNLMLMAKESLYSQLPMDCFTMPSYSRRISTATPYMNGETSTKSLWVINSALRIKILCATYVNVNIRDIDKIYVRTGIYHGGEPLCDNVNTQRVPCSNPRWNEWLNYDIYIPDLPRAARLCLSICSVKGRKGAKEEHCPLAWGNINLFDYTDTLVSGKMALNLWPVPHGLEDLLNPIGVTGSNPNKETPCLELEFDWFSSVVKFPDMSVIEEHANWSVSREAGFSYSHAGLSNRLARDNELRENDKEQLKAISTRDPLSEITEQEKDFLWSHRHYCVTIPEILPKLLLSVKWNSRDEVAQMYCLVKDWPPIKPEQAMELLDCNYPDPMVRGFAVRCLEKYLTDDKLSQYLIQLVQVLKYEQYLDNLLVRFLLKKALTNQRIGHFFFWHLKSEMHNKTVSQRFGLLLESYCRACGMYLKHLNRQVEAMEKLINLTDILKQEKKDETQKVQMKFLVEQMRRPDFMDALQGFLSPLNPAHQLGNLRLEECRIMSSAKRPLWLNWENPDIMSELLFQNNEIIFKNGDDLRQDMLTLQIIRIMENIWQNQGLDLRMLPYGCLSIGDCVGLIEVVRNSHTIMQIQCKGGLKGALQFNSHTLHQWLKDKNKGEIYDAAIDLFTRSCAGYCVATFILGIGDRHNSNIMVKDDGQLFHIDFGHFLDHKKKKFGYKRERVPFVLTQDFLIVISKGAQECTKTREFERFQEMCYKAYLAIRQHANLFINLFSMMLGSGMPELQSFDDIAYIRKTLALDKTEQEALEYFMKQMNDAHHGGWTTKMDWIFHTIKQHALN

[1] = system: CD8 T cells from pMel-1 mice; experiment: Phenotyping of gp100-activated CD8 T cells (CD62L/CD44 flow cytometry); assay type: cell-based, mouse; conditions: for phenotype of CD8 T cells (TCM vs TEM) compared to non-treated cells: after 3 days of stimulation with 1 μM gp100 25-33 (7 days culture); for CD62L expression level: day 3, and day 7 after each stimulation with gp100
Description: CD8 T cells from pMel-1 mice were activated in vitro as previously described^5. Briefly, homogenized pMel-1 splenocytes were stimulated with gp10025-33 peptide at a 1 μM concentration (day 0). Cells were cultured in RPMI 1640 (Lonza) supplemented with 10% FBS, penicillin (100 U/mL), streptomycin ([…]), 0.1% β-mercaptoethanol (Life Technologies, Invitrogen) and IL-2 (100 U/ml) (Peprotech) at 37° C. with 5% CO2. pMel-1 cells were cultured with or without the different PI3K inhibitors. The concentration of the inhibitors was maintained throughout the culture by changing the media every 48-72 hours.
On Days 7, 14 and 21, cells were re-stimulated with gp10025-33 peptide at a 1 μM concentration using feeder cells (irradiated WT splenocytes, 4000 Rads) at 1:1 ratio using the same culture conditions.
Cells were labeled with 5 μM Violet Cell Trace (VCT) proliferation dye (Life Technologies, Invitrogen) prior to their stimulation (day 0) following the manufacturers' instructions. The proliferation of CD8 T cells was assessed via VCT dye dilution (day 3) using an LSRII SORP with HTS Flow Cytometer (BD Biosciences). The data were analyzed using FlowJo 10 (Tree Star). The cultured cells were harvested on days 3, 7, 14 and 21 to assess their phenotype. Cells were stained with the following surface marker antibodies (BD Biosciences): APC-Cy7 labeled anti-CD8, FITC labeled anti-Vβ13, PE labeled anti-CD62L, APC labeled anti-CD44, PE-CF594 labeled anti-CD127, APC labeled anti-KLRG-1 in addition to the viability stain 7AAD. All the analyses were performed on viable (7AAD−), Vβ13+CD8+ T cells.

[2] = system: CD8 T cells from pMel-1 mice; experiment: Cytometric Bead Array of IL-2, TNF and IFN-γ secretion; assay type: cell-based, mouse
[3] = system: CD8 T cells from pMel-1 mice; experiment: Proliferation assay (VCT dye dilution) and fold expansion of CD8 T cells; assay type: cell-based, mouse
Description: CD8 T cells from pMel-1 mice were activated in vitro as previously described^5. […] The concentration of the inhibitors was maintained throughout the culture by changing the media every 48-72 hours. […] The data were analyzed using FlowJo 10 (Tree Star). […] Cells were stained with the following surface marker antibodies (BD Biosciences): APC-Cy7 labeled anti-CD8, FITC labeled anti-Vβ13, PE labeled anti-CD62L, APC labeled anti-CD44, PE-CF594 labeled anti-CD127, APC labeled anti-KLRG-1 in addition to the viability stain 7AAD. All the analyses were performed on viable (7AAD−), Vβ13+CD8+ T cells.

Chain of p110δ (O00329 whole entry, species assumed): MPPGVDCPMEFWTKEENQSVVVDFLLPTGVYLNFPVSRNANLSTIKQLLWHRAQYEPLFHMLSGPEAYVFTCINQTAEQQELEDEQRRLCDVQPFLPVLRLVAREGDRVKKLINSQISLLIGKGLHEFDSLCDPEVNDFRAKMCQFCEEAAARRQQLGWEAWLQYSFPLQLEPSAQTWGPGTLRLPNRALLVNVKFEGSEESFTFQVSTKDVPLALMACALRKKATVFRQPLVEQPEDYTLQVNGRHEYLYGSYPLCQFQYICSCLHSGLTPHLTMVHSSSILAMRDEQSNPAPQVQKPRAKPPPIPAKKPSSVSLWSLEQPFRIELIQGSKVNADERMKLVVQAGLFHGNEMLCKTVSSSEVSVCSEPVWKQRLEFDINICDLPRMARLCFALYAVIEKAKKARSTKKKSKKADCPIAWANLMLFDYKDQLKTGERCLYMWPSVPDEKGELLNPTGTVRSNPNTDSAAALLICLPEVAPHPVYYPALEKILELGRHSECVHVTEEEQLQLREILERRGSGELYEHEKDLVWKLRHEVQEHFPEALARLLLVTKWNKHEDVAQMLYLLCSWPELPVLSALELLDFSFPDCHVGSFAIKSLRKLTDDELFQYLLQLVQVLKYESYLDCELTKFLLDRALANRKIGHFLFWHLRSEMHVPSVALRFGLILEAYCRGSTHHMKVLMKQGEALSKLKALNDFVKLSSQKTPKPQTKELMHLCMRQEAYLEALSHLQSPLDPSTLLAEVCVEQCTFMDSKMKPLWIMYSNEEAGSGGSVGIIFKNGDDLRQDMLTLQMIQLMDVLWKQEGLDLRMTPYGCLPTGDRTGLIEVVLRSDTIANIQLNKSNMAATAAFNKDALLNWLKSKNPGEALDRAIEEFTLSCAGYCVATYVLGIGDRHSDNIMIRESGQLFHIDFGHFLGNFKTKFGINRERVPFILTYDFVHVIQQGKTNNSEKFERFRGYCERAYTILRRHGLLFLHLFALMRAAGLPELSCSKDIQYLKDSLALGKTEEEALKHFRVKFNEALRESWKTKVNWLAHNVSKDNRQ
Chain of p110δ (P27986 whole entry partner, species assumed): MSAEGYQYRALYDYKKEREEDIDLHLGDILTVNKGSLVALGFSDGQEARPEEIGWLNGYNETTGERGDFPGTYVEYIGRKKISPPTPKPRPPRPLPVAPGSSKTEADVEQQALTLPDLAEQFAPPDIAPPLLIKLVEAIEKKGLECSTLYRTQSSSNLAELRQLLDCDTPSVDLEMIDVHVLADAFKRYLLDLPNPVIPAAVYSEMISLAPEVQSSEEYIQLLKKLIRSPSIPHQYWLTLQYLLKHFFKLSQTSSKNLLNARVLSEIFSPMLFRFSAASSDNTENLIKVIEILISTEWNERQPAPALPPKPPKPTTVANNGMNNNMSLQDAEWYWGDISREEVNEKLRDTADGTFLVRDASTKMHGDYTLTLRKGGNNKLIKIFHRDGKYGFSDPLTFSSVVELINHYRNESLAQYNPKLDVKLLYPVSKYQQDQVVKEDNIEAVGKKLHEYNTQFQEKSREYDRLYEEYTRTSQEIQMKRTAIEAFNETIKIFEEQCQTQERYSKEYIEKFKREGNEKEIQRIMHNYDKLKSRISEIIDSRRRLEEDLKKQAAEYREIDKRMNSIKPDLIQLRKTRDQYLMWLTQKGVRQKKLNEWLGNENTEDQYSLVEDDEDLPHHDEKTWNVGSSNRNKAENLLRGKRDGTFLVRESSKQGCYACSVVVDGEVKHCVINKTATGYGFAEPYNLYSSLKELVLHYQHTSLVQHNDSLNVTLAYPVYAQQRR
Chain of p110γ (P48736 whole entry, species assumed): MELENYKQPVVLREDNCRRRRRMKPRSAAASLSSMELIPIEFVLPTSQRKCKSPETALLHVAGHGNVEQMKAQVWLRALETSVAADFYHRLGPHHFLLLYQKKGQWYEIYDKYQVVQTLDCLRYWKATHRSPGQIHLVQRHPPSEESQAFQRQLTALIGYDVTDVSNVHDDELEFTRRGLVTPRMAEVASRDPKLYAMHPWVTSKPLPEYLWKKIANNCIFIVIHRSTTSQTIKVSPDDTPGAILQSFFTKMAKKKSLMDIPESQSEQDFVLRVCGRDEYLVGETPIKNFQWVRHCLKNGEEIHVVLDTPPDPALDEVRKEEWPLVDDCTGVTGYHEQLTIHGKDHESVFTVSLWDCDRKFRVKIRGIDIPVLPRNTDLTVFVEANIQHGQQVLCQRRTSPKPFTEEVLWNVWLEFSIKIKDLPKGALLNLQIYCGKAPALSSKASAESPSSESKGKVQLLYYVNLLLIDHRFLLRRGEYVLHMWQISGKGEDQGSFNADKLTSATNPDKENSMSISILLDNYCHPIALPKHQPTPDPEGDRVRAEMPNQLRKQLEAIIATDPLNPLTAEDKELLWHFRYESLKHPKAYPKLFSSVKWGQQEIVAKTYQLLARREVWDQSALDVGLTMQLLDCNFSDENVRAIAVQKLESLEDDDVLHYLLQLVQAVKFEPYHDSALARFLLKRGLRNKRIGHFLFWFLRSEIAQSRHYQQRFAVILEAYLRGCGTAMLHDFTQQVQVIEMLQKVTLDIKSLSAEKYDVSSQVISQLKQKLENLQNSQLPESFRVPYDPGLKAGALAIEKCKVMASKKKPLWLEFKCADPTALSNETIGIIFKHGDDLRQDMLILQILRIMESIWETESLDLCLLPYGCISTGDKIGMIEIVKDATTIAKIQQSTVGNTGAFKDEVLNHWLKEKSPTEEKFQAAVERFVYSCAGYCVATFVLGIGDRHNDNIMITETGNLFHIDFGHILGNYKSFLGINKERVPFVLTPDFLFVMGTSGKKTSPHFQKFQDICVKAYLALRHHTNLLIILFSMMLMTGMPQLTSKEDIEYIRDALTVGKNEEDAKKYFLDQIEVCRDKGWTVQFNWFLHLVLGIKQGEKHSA

## Cc1cc(C(C)Nc2ccccc2)c2nc(N3CCOCC3)cc(=O)n2c1 (centres unmarked) [TGX-221]
p110γ
  IC50: > 10 µM
p110δ
  IC50: 100 nM
p110α
  IC50: 5 µM
[1]
  phenotype of CD8 T cells (TCM vs TEM) compared to non-treated cells: no differences in the phenotype

## CC[C@H](Nc1ncnc2[nH]cnc12)c1nc2cccc(F)c2c(=O)n1-c1ccccc1 [CAL-101]
[1]; D3, stim1, representative example, non-treated 4%
  percentage of TCM: 32%
[1]; D7, Stim 3, representative example, non-treated 36%
  percentage of terminally differentiated T-cells: 5%
[1]; D7, Stim3, representative example, non-treated 64%
  percentage of TEM cells (CD62LloCD44hi): 95%

## Cc1nc(NC(=O)N2CCC[C@H]2C(N)=O)sc1-c1csc(C(C)(C)C)n1 [A66]
[1]
  phenotype of CD8 T cells (TCM vs TEM) compared to non-treated cells: no differences in the phenotype

## CS(=O)(=O)N1CCN(Cc2cc3nc(-c4cccc5[nH]ncc45)nc(N4CCOCC4)c3s2)CC1 [GDC-0941]
[2]; GDC-0941, A66 (288 nM), TGX-221 (45 nM), CAL-101 (202.5 nM), re-stimulated days 7 and 14, supernatant after 24 hours
  ability of CD8 T cells to produce IFNγ and TNF: not affected
[2]; after re-stimulation (stimulation 3), normalized to GP100, GDC 99 nM, CAL-101 202.5 nM, listed as GDC
  IL-2 secretion: significantly higher levels of IL-2; also recorded: maintained a significantly high level of IL-2 secretion
[3]; highest dose tested (279 nM)
  toxicity to CD8 T cells: toxic
[3]; with further stimulations (days 7 and 14), vs non-treated cells
  expansion of CD8 T cells: expand at a significantly high rate
[1]; GDC at the highest concentration, non-treated cells 96% TEM
  percentage of TCM phenotype (CD62LhiCD44hi): 37%
[1]; GDC treatment, after the third stimulation, non-treated 64%
  percentage of TEM: 93%
[1]; GDC treatment, after the third stimulation, non-treated less than 0.01
  percentage of TCM: 3.5%
[1]; listed as GDC
  phenotype of CD8 T cells (TCM vs TEM) compared to non-treated cells: high percentage of the TCM phenotype; also recorded: high percentage of TCM cells
  CD62L expression level: maintained high expression levels of CD62L
[1]; after the second and third stimulations
  phenotype of CD8 T cells (TEM, terminally differentiated) compared to non-treated or other inhibitors: higher percentage of TEM
[1]; after the third stimulation, highest GDC concentration, non-treated 36%
  percentage of terminally differentiated T-cells (CD62LloCD44lo): 4%
[1]
  CD62L expression level: maintains a high level of CD62L expression
